From US8282944B2, “Metal complexes incorporated within biodegradable nanoparticles and their use” (The University of Akron, priority 2007, dated 2012) come the findings set out here.

The test system of one data set is rat models. Briefly: Toxicity in rat models via IV tail injection. The format is in vivo. From the text:
In one embodiment, the R group is an alcohol. Suitable alcohols include ethanol and propanol. For formula 26, n has a value between 1 and 200.

The subject of the next data set is ACHN renal carcinoma. In words: Anti-proliferative effects on ACHN renal carcinoma at 96 hours of growth. It is filed as cell-based. The settings on record: 0.5-25 μm, FIGS. 4 and 5. The method, then:
The anti-proliferative effects of formula 23, cisplatin and carboplatin were investigated on ACHN renal carcinoma at 96 hours of growth and are shown in FIGS. 4 and 5. Percent control growth and percent standard error of the means (SEM) were conducted at various concentrations including 0.5 μm, 1.0 μm, 2.5 μm, 5.0 μm, 10 μm, 15 μm, 20 μm and 25 μm.

In data set [1] the test system is ovarian cancer cell line NuTu-19. In words: MTT test against ovarian cancer cell line NuTu-19. It is filed as cell-based. The protocol: In one example, a silver(I) complex as represented in formula 23 has been tested for preliminary anticancer activity against the ovarian cancer cell line NuTu-19. Silver complex 23 was chosen because of its overall stability.
Cells were plated at 5000 cells per well in a 96-well plate. All tests were run in triplicate. Cells were allowed to incubate overnight after plating followed by the addition of a 50 μM solution of 23, cisplatin, and thiaether-RhCl3 dissolved in complete cell media. The cells were then incubated for 72 h followed by the addition of MTT dissolved in phosphate buffered saline (PBS) and incubated for another 4 h. A sodium dodecyl sulfate: 0.01M HCl (SDS) solution was then added and the cells were incubated overnight. The SDS solution is added to solubilize the blue formazan crystals that are formed by the reduction of MTT by living cells. The absorbance is then read on a microplate reader. Therefore, the higher the absorbance the more living cells present in cell colony.

A further data set relates to HT1376 colon carcinoma. Briefly: Anti-proliferative effects on HT1376 colon carcinoma at 96 hours of growth. The settings on record: 0.5-25 μm, FIGS. 6 and 7. It is filed as cell-based. The protocol:
The anti-proliferative effects of formula 23, cisplatin and carboplatin were investigated on HT1376 colon carcinoma at 96 hours of growth and are shown in FIGS. 6 and 7. Percent control growth and percent standard error of the means (SEM) were conducted at various concentrations including 0.5 μm, 1.0 μm, 2.5 μm, 5.0 μm, 10 μm, 15 μm, 20 μm and 25 μm.

Another data set deals with A375 melanoma. In words: Anti-proliferative effects on A375 melanoma at 96 hours of growth. The format is cell-based. The settings on record: 0.5-25 μm, FIGS. 2 and 3. The protocol: The anti-proliferative effects of formula 23, cisplatin and carboplatin were investigated on A375 melanoma at 96 hours of growth and are shown in FIGS. 2 and 3. Percent control growth and percent standard error of the means (SEM) were conducted at various concentrations including 0.5 μm, 1.0 μm, 2.5 μm, 5.0 μm, 10 μm, 15 μm, 20 μm and […].

With `OC1(O)CN2C=CN3Cc4cccc(n4)CN4C=CN(C1)[CH]4[Ag][CH]1N4C=CN1CC(O)(O)CN1C=CN(Cc5cccc(n5)C4)[CH]1[Ag][CH]32` [formula 24], the toxicity result in the data set with rat models is reported as “severe toxicity”.

Turning to `CC(=O)[O][Ag][CH]1N(C)C(Cl)=C(Cl)N1C` [formula 23], in the data set on ACHN renal carcinoma, the “percent control growth compared to carboplatin” value was “comparable control growth” and the “percent control growth compared to cisplatin” value is “better control growth”. Moreover, in data set [1] (NuTu-19, 50 μM, after 72 h of incubation), the “cell kill (MTT absorbance, FIG. 1)” value is given as “kills all cells”. In data set [1] (NuTu-19, tested for a period of 72 hours, preliminary), the anticancer activity result is “shown anticancer activity”. In addition, in the data set on HT1376 colon carcinoma, the “percent control growth compared to carboplatin and cisplatin” value was “comparable control growth”. Further, the “percent control growth compared to cisplatin and carboplatin” value with A375 melanoma is “best control growth”.
